# Results as given in DBAASP.
# Values joined by “and” are separate entries in the source; they are usually repeats but may differ in a detail not shown here. Equal entries are not always repeated.
# Columns and labels:
# Test in all cases: ≥ marks a high value that may be exact or a test limit, other limits are often not marked, values filed in µg/mL are converted to µM
# Edwardsiella tarda = tested on: Edwardsiella tarda
# Escherichia coli = tested on: Escherichia coli
# Candida albicans = tested on: Candida albicans
# Staphylococcus aureus = tested on: Staphylococcus aureus
# Aeromonas hydrophila = tested on: Aeromonas hydrophila
# Bacillus subtilis = tested on: Bacillus subtilis
# Pseudomonas aeruginosa = tested on: Pseudomonas aeruginosa
# [1] = tested on: Staphylococcus aureus ATCC 25923
# [2] = tested on: Escherichia coli ATCC 25922
# [3] = tested on: Serratia marcescens ATCC 8100
# [4] = tested on: Escherichia coli O18:K1:H7 Bort
# Bacillus megaterium Bm11 = tested on: Bacillus megaterium Bm11
# [5] = tested on: Staphylococcus aureus Cowan 1
# [6] = tested on: Pseudomonas aeruginosa KCTC 1637
# Serratia marcescens = tested on: Serratia marcescens
# Streptococcus agalactiae = tested on: Streptococcus agalactiae
# Escherichia coli D21 = tested on: Escherichia coli D21
# [7] = tested on: Staphylococcus epidermidis KCTC 1917
# [8] = tested on: Bacillus subtilis KCTC 3068
# [9] = tested on: Staphylococcus epidermidis ATCC 35984
# [10] = tested on: Pseudomonas aeruginosa ATCC 27853
# Enterococcus faecium = tested on: Enterococcus faecium
# Cryptococcus neoformans = tested on: Cryptococcus neoformans
# [11] = tested on: Escherichia coli KCTC 1682
# Escherichia coli ML-35 = tested on: Escherichia coli ML-35
# [12] = tested on: Salmonella typhimurium KCTC 1926
# [13] = tested on: Staphylococcus aureus KCTC 1621
# [14] = tested on: Salmonella enterica subsp. enterica serovar Typhimurium ATCC 14028
# [15] = tested on: Staphylococcus epidermidis ATCC 12228
# Escherichia coli W160-37 = tested on: Escherichia coli W160-37
# [16] = tested on: Candida albicans ATCC 37092
# [17] = tested on: Staphylococcus aureus ATCC 29213
smiles,measurement,setting,value
CC[C@H](C)[C@H](NC(=O)[C@H](CC(C)C)NC(=O)CNC(=O)[C@H](Cc1cnc[nH]1)NC(=O)[C@@H](NC(=O)[C@H](Cc1cnc[nH]1)NC(=O)[C@H](CCCCN)NC(=O)CNC(=O)[C@@H](NC(=O)[C@H](CO)NC(=O)[C@H](Cc1ccccc1)NC(=O)[C@H](CC(C)C)NC(=O)CNC(=O)CNC(=O)[C@@H](NC(=O)[C@@H](NC(=O)[C@H](Cc1cnc[nH]1)NC(=O)[C@H](Cc1cnc[nH]1)NC(=O)[C@@H](NC(=O)[C@@H](N)Cc1ccccc1)[C@@H](C)CC)[C@@H](C)CC)[C@@H](C)CC)C(C)C)[C@@H](C)CC)C(=O)N[C@@H](Cc1cnc[nH]1)C(=O)NCC(=O)N[C@@H](Cc1cnc[nH]1)C(=O)O [FIHHIIGGLFSVGKHIHGLIHGH],MIC,Edwardsiella tarda,≥ 160 µM
same,MIC,Escherichia coli,6.7 µM
same,MIC,Candida albicans,20 µM
same,MIC,Staphylococcus aureus,5 µM
same,MIC,Aeromonas hydrophila,≥ 160 µM
same,MIC,Bacillus subtilis,3 µM
same,MIC,Pseudomonas aeruginosa,35 µM
CC(C)C[C@H](NC(=O)[C@H](CCCCN)NC(=O)[C@H](CCCCN)NC(=O)[C@H](Cc1ccccc1)NC(=O)[C@H](CC(C)C)NC(=O)[C@H](CCCCN)NC(=O)[C@H](CCCCN)NC(=O)[C@H](Cc1ccccc1)NC(=O)[C@H](CCCCN)NC(=O)[C@H](CCCCN)NC(=O)[C@H](CCCN=C(N)N)NC(=O)[C@H](Cc1ccccc1)NC(=O)[C@H](CCCN=C(N)N)NC(=O)[C@H](CCCCN)NC(=O)[C@H](Cc1ccccc1)NC(=O)[C@H](CCCN=C(N)N)NC(=O)CN)C(=O)N[C@@H](CO)C(N)=O [GRFKRFRKKFKKLFKKLS],MIC,[1],2 µM and 4 µM
same,MIC,[2],2 µM
same,MIC,[3],2 µM
same,MIC,[4],8 µM
same,MIC,Bacillus megaterium Bm11,2 µM
same,MIC,[5],2 µM
same,MIC,[6],4 µM
same,MIC,Serratia marcescens,4 µM
same,MIC,Candida albicans,16 µM
same,MIC,Streptococcus agalactiae,1 µM
same,MIC,Escherichia coli D21,4 µM
same,MIC,Staphylococcus aureus,4 µM
same,MIC,[7],4 µM
same,MIC,[8],4 µM
same,MIC,[9],2 µM
same,MIC,[10],2 µM
same,MIC,Enterococcus faecium,8 µM
same,MIC,Cryptococcus neoformans,4 µM
same,MIC,[11],4 µM and 2.83 µM
same,MIC,Escherichia coli ML-35,4 µM
same,MIC,[12],2 µM
same,MIC,[13],4 µM and 2.83 µM
same,MIC,[14],4 µM
same,MIC,[15],1 µM
CC[C@H](C)[C@H](NC(=O)[C@H](CC(N)=O)NC(=O)[C@@H](NC(=O)[C@@H](NC(=O)[C@H](CCCCN)NC(=O)[C@H](CCC(N)=O)NC(=O)[C@H](CCC(N)=O)NC(=O)[C@H](C)NC(=O)[C@H](CCC(=O)O)NC(=O)[C@H](CCC(=O)O)NC(=O)[C@@H](NC(=O)[C@H](CC(=O)O)NC(=O)[C@H](CCCCN)NC(=O)[C@H](CC(C)C)NC(C)=O)C(C)C)[C@@H](C)CC)[C@@H](C)CC)C(=O)N[C@H](C(=O)N[C@@H](CCCN=C(N)N)C(=O)N[C@@H](CCCN=C(N)N)C(=O)N[C@@H](CC(C)C)C(N)=O)[C@@H](C)CC [LKDVEEAQQKIINIIRRL],MIC,Escherichia coli W160-37,22 µM
CC(C)C[C@H](NC(=O)[C@@H](N)CCCN=C(N)N)C(=O)N1CCC[C@H]1C(=O)N[C@@H](CCCN=C(N)N)C(=O)N1CCC[C@H]1C(=O)N[C@@H](CCCN=C(N)N)C(=O)N1CCC[C@H]1C(=O)N[C@@H](CCCN=C(N)N)C(=O)N1CCC[C@H]1C(=O)N[C@@H](CC(C)C)C(=O)N1CCC[C@H]1C(=O)N[C@@H](Cc1ccccc1)C(=O)N1CCC[C@H]1C(=O)N[C@@H](CCCN=C(N)N)C(=O)N1CCC[C@H]1C(=O)NCC(=O)O [RLPRPRPRPLPFPRPG],MIC,[2],114 µM
same,MIC,[16],≥ 500 µM
same,MIC,[17],> 500 µM
